Measurements taken from patent publication US8067395B2, “Inhibitors of tyrosine kinases and uses thereof” (Pharmacyclics, Inc., priority 2006, dated 2011).

What follows are compounds tested against Btk (Homo sapiens, UniProt Q06187) (assay: Btk TR-FRET kinase inhibition assay). Details: pH 7.4, ATP at the Km for the kinase, 1 μM peptide substrate, [Btk]total=0.5 nM, read-out: Btk-TRFRET (Ki).
Format: biochemical
Protocol: Suitable in vitro assays for measuring kinase activity and the inhibition thereof by compounds are known (e.g., see Kuzmic et al. Anal. Biochem. 2000, 286, 45-50).
The following protocol represents an assay for determination of inhibition of kinases under physiological conditions (pH 7.4). Kinase activity was determined using a time-resolved fluorescence resonance energy transfer (TR-FRET) methodology. Measurements were performed in a reaction volume of 50 μL using 96-well assay plates. Kinase enzyme, inhibitor, ATP (at the Km for the kinase), and 1 μM peptide substrate (Biotin-AVLESEEELYSSARQ-NH2) were incubated in a reaction buffer composed of 20 mM Tris, 50 mM NaCl, MgCl2 (5-25 mM depending on the kinase), 1 mM DTT, 0.1 mM EDTA, 0.01% bovine serum albumin, 0.005% Tween-20, and 10% DMSO at pH 7.4 for one hour. The reaction was quenched by the addition of 1.2 equivalents of EDTA (relative to Mg^2+) in 25 μL of 1× Lance buffer (Perkin-Elmer). Streptavidin-APC (Perkin-Elmer) and Eu-labeled p-Tyr100 antibody (Perkin-Elmer) in 1× Lance buffer were added in a 25 μL volume to give final concentrations of 100 nM and 2.5 nM, respectively, and the mixture was allowed to incubate for one hour. The TR-FRET signal was measured on a multimode plate reader with an excitation wavelength of 330 nm and detection wavelengths of 615 nm and 665 nm. Activity was determined by the ratio of the fluorescence at 665 nm to that at 615 nm. For each compound, enzyme activity was measured at various concentrations of compound. Negative control reactions were performed in the absence of inhibitor in replicates of six, and two no-enzyme controls were used to determine baseline fluorescence levels. Inhibition constants were obtained using the program BatchKi (Kuzmic et al. Anal. Biochem. 2000, 286, 45-50). IC50s were obtained according to this equation: IC50={Ki(app)/(1+[ATP]/Km^ATP)}+[E]total/2; for all kinases, [ATP]=Km^ATP, [Btk]total=0.5 nM and [Lck]total=6 nM.

Chain of Btk (Q06187 whole entry): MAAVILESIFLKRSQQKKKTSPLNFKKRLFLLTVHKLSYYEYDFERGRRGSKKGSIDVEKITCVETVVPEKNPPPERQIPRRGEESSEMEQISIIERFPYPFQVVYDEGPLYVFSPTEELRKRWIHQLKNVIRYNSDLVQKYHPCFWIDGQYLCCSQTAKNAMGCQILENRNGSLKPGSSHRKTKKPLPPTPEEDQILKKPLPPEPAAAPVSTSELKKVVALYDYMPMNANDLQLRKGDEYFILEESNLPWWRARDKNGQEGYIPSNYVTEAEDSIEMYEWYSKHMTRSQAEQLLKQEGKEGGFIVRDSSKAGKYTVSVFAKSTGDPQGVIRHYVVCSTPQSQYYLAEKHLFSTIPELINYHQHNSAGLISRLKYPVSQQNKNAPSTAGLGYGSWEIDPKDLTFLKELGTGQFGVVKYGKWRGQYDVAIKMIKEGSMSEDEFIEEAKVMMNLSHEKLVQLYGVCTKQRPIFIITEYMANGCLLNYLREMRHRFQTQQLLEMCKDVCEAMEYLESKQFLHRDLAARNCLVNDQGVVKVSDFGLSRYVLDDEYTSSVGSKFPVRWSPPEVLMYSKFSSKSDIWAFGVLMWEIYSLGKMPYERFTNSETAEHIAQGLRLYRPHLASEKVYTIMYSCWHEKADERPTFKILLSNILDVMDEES

Row | Ki | Structure (SMILES)
1 | 100 to 1000 nM | Cc1c(C=NNC(=O)c2ccccn2)[nH]c(=O)c2c1ccc1nc(Nc3c(Cl)cccc3Cl)n(C)c12 [Compound 47, pyridine-2-carboxylic acid [2-(2,6-dichlorophenylamino)-1,6-dimethyl-9-oxo-8,9-dihydro-1H-imidazo[4,5-h]isoquinolin-7-ylmethylene]-hydrazide]
2 | < 100 nM | Cc1cc(F)ccc1Nc1nc2ccc3c(C)c(/C=C/CN4CCP(C)(=O)CC4)[nH]c(=O)c3c2n1C [Compound 1, 2-(4-fluoro-2-methylphenylamino)-1,6-dimethyl-7-[3-(4-methyl-4-oxo-4λ^5[1,4]azaphosphinan-1-yl)-propenyl]-1,8-dihydro-imidazo[4,5-h]isoquinolin-9-one]
3 | < 100 nM | Cc1cc(F)ccc1Nc1nc2ccc3c(C)c(/C=C/CN4CCP(=O)(C5CC5)CC4)[nH]c(=O)c3c2n1C [Compound 14, 2-(4-fluoro-2-methylphenylamino)-1,6-dimethyl-7-{3-[4-(cyclopropyl)-4-oxo-4λ^5-[1,4]azaphosphinan-1-yl]-propenyl}-1,8-dihydro-imidazo[4,5-h]isoquinolin-9-one]
4 | < 100 nM | Cc1cc(F)ccc1Nc1nc2ccc3c(C)c(C=CCN4CCN(Cc5c(Cl)cccc5Cl)CC4)[nH]c(=O)c3c2n1C [Compound 28, 2-(4-fluoro-2-methylphenylamino)-1,6-dimethyl-7-[3-(N-(2,6-dichlorophenylmethyl)-piperazin-1-yl)-propenyl]-1,8-dihydro-imidazo[4,5-h]isoquinolin-9-one]
5 | 100 to 1000 nM | Cc1cc(F)ccc1Nc1nc2ccc3c(C)c(CCCN4CCP(=O)(c5ccccc5)CC4)[nH]c(=O)c3c2n1C [Compound 9, 2-(4-fluoro-2-methylphenylamino)-1,6-dimethyl-7-[3-(4-oxo-4-phenyl-4λ^5-[1,4]azaphosphinan-1-yl)-propyl]-1,8-dihydro-imidazo[4,5-h]isoquinolin-9-one]
6 | < 100 nM | Cc1cc(F)ccc1Nc1nc2ccc3c(C)c(C=CCN4CCN(c5ccccn5)CC4)[nH]c(=O)c3c2n1C [Compound 26, 2-(4-fluoro-2-methylphenylamino)-1,6-dimethyl-7-[3-(N-(pyridin-2-yl)-piperazin-1-yl)-propenyl]-1,8-dihydro-imidazo[4,5-h]isoquinolin-9-one]
7 | 100 to 1000 nM | Cc1cc(F)ccc1Nc1nc2ccc3c(CC(=O)N4CCP(=O)(c5ccc(F)cc5)CC4)c(C)[nH]c(=O)c3c2n1C [Compound 50, 2-(4-fluoro-2-methylphenylamino)-1,7-dimethyl-6-{2-[4-(4-fluorophenyl)-4-oxo-4λ^5[1,4]azaphosphinan-1-yl]-2-oxoethyl}-1,8-dihydro-imidazo[4,5-h]isoquinolin-9-one]
8 | < 100 nM | Cc1c(/C=N/O)[nH]c(=O)c2c1ccc1nc(Nc3c(Cl)cccc3Cl)n(C)c12 [Compound 44, 2-(2,6-dichlorophenylamino)-1,6-dimethyl-9-oxo-8,9-dihydro-1H-imidazo[4,5-h]isoquinoline-7-carbaldehyde oxime]
9 | < 100 nM | CCC(=O)N1CCN(CC=Cc2[nH]c(=O)c3c(ccc4nc(Nc5ccc(F)cc5C)n(C)c43)c2C)CC1 [Compound 33, 2-(4-fluoro-2-methylphenylamino)-1,6-dimethyl-7-[3-(N-ethylcarbonylpiperazin-1-yl)-propenyl]-1,8-dihydro-imidazo[4,5-h]isoquinolin-9-one]
10 | < 100 nM | Cc1cc(F)ccc1Nc1nc2ccc3c(C)c(C=CCN4CCN(c5ccncc5)CC4)[nH]c(=O)c3c2n1C [Compound 23, 2-(4-fluoro-2-methylphenylamino)-1,6-dimethyl-7-[3-(N-(pyridin-4-yl)-piperazin-1-yl)-propenyl]-1,8-dihydro-imidazo[4,5-h]isoquinolin-9-one]
11 | < 100 nM | Cc1cc(F)ccc1Nc1nc2ccc3c(C)c(/C=C/CN4CCP(=O)(CC5CC5)CC4)[nH]c(=O)c3c2n1C [Compound 13, 2-(4-fluoro-2-methylphenylamino)-1,6-dimethyl-7-{3-[4-(cyclopropylmethyl)-4-oxo-4λ^5-[1,4]azaphosphinan-1-yl]-propenyl}-1,8-dihydro-imidazo[4,5-h]isoquinolin-9-one]
12 | < 100 nM | Cc1cc(F)ccc1Nc1nc2ccc3c(C)c(C=CCN4CCN(C(=O)C(C)C)CC4)[nH]c(=O)c3c2n1C [Compound 36, 2-(4-fluoro-2-methylphenylamino)-1,6-dimethyl-7-[3-(N-isopropylcarbonylpiperazin-1-yl)-propenyl]-1,8-dihydro-imidazo[4,5-h]isoquinolin-9-one]
13 | < 100 nM | Cc1c(/C=C/CN2CCP(=O)(c3ccccc3)CC2)[nH]c(=O)c2c1ccc1nc(Nc3c(Cl)cccc3Cl)n(C)c12 [Compound 5, 2-(2,6-dichlorophenylamino)-1,6-dimethyl-7-[3-(4-oxo-4-phenyl-4λ^5-[1,4]azaphosphinan-1-yl)-propenyl]-1,8-dihydro-imidazo[4,5-h]isoquinolin-9-one]
14 | < 100 nM | Cc1cc(F)ccc1Nc1nc2ccc3c(C)c(/C=C/CN4CCP(=O)(c5ccccc5)CC4)[nH]c(=O)c3c2n1C [Compound 3, 2-(4-fluoro-2-methylphenylamino)-1,6-dimethyl-7-[3-(4-oxo-4-phenyl-4λ^5-[1,4]azaphosphinan-1-yl)-propenyl]-1,8-dihydro-imidazo[4,5-h]isoquinolin-9-one]
15 | < 100 nM | Cc1cc(F)ccc1Nc1nc2ccc3c(C)c(C=CCN4CCN(S(=O)(=O)N(C)C)CC4)[nH]c(=O)c3c2n1C [Compound 32, 2-(4-fluoro-2-methylphenylamino)-1,6-dimethyl-7-[3-(N—(N,N-dimethylaminosulfonyl)-piperazin-1-yl)-propenyl]-1,8-dihydro-imidazo[4,5-h]isoquinolin-9-one]
16 | < 100 nM | Cc1cc(F)ccc1Nc1nc2ccc3c(C)c(/C=C/CNC(=O)C4CCP(C)(=O)CC4)[nH]c(=O)c3c2n1C (mixture of isomers) [Compound 15, 2-(4-fluoro-2-methylphenylamino)-1,6-dimethyl-7-{3-[(1-oxo-1-methyl-1λ^5-phosphinan-4-yl)-carbonylamino]propenyl}-1,8-dihydro-imidazo[4,5-h]isoquinolin-9-one]
17 | 100 to 1000 nM | COc1ccccc1C(=O)NN=Cc1[nH]c(=O)c2c(ccc3nc(Nc4c(Cl)cccc4Cl)n(C)c32)c1C [Compound 49, 2-methoxy-benzoic acid [2-(2,6-dichlorophenylamino)-1,6-dimethyl-9-oxo-8,9-dihydro-1H-imidazo[4,5-h]isoquinolin-7-ylmethylene]-hydrazide]
18 | < 100 nM | Cc1ccc(F)cc1Nc1nc2ccc3c(C)c(C=CCN4CCP(=O)(c5ccccc5)CC4)[nH]c(=O)c3c2n1C [Compound 4, 2-(3-fluoro-6-methylphenylamino)-1,6-dimethyl-7-[3-(4-oxo-4-phenyl-4λ^5-[1,4]azaphosphinan-1-yl)-propenyl]-1,8-dihydro-imidazo[4,5-h]isoquinolin-9-one]
19 | < 100 nM | Cc1cc(F)ccc1Nc1nc2ccc3c(C)c(C=CCNC(=O)C4CCP(=O)(c5ccccc5)CC4)[nH]c(=O)c3c2n1C (stereo not drawn) [Compound 16, 2-(4-fluoro-2-methylphenylamino)-1,6-dimethyl-7-{3-[(1-oxo-1-trans-phenyl-1λ^5-phosphinan-4-yl)-carbonylamino]propenyl}-1,8-dihydro-imidazo[4,5-h]isoquinolin-9-one]
20 | < 100 nM | Cc1cc(F)ccc1Nc1nc2ccc3c(C)c(/C=C/CNC(=O)[C@H]4CC[P@@](=O)(c5ccccc5)CC4)[nH]c(=O)c3c2n1C [Compound 17, 2-(4-fluoro-2-methyl-phenylamino)-1,6-dimethyl-7-{3-[(1-oxo-1-cis-phenyl-1λ^5-phosphinan-4-yl)-carbonylamino]propenyl}-1,8-dihydro-imidazo[4,5-h]isoquinolin-9-one]
21 | > 1000 nM | Cc1c(C(O)C(F)(F)c2cn(Cc3ccccc3)nn2)[nH]c(=O)c2c1ccc1nc(Nc3c(Cl)cccc3Cl)n(C)c12 (centres unmarked) [Compound 40, 2-(2,6-dichlorophenylamino)-1,6-dimethyl-7-[2,2-difluoro-1-hydroxy-2-(N-phenylmethyl-[1,2,3]triazol-4-yl)-ethyl]-1,8-dihydro-imidazo[4,5-h]isoquinolin-9-one]
22 | < 100 nM | COc1ccc(P2(=O)CCN(CC=Cc3[nH]c(=O)c4c(ccc5nc(Nc6cc(F)ccc6C)n(C)c54)c3C)CC2)cc1 [Compound 11, 2-(3-fluoro-6-methylphenylamino)-1,6-dimethyl-7-[3-(4-oxo-4-(4-methoxyphenyl)-4λ^5-[1,4]azaphosphinan-1-yl)-propenyl]-1,8-dihydro-imidazo[4,5-h]isoquinolin-9-one]
23 | < 100 nM | Cc1cc(F)ccc1Nc1nc2ccc3c(C)c(C=CCN4CCN(C(=O)c5ccccc5)CC4)[nH]c(=O)c3c2n1C [Compound 22, 2-(4-fluoro-2-methylphenylamino)-1,6-dimethyl-7-[3-(N-phenylcarbonylpiperazin-1-yl)-propenyl]-1,8-dihydro-imidazo[4,5-h]isoquinolin-9-one]
